According to patent publication US6689801B2, “Certain heteroaryl substituted thiol inhibitors of endothelin-converting enzyme” (Novartis AG, priority 1998, dated 2004):

| SMILES | melting point [°C] |
| --- | --- |
| CSCCC(S)C(=O)NC1(C(=O)NC(Cc2ccc(-c3ccoc3)nc2)C(=O)O)CCCC1.Cl (stereo not drawn) | 150 to 153 |
| CCCC(S)C(=O)NC1(C(=O)NC(Cc2ccc(-c3cccs3)nc2)C(=O)O)CCCC1.Cl (stereo not drawn) | 165 to 167 |
| CC[C@H](C)[C@H](S)C(=O)NC1(C(=O)NC(Cc2ccc(-c3ccccc3)s2)C(=O)O)CCCC1 (stereo in doubt) [Example 1(b), 2-{[1-(2-Mercapto-3-methyl-pentanoylamino)-cyclopentanecarbonyl]-amino}-3-(5-phenyl-thien-2-yl)-propionic acid] | 131 to 133 |
| O=C(O)C(Cc1cc(-c2ccccc2)cs1)NC(=O)C1(NC(=O)[C@@H](S)Cc2ccccc2)CCCC1 (stereo in doubt) [Example 1(d), 2-{[1-(2-Mercapto-3-phenyl-propionylamino)-cyclopentanecarbonyl]-amino}-3-(4-phenyl-thien-2-yl)-propionic acid] | 133 to 136 |
| Cc1nc(-c2ccccc2)oc1CC(NC(=O)C1(NC(=O)[C@@H](S)C(C)C)CCCC1)C(=O)O (stereo in doubt) [Example 1(e), 2-{[1-(2-Mercapto-3-methyl-butanoylamino)-cyclopentanecarbonyl]-amino}-3-(4-methyl-2-phenyl-oxazol-5-yl)-propionic acid] | 227 to 229 |
| CC(C)C[C@H](S)C(=O)NC1(C(=O)N[C@@H](Cc2cnc(-c3ccc(F)c(Cl)c3)s2)C(=O)O)CCCC1 (stereo in doubt) [Example 1(f), 3-[2-(3-Chloro-4-fluoro-phenyl)-thiazol-5-yl]-2-{[1-(2-mercapto-4-methyl-pentanoylamino)-cyclopentanecarbonyl]-amino}-propionic acid] | 96 to 98 |
| Cc1noc(C)c1-c1nc(CC(NC(=O)C2(NC(=O)[C@@H](S)C(C)C)CCCC2)C(=O)O)no1 (stereo in doubt) [Example 1(g), 3-[5-(3,5-Dimethyl-isoxazol-4-yl)-[1,2,4]oxadiazol-3-yl]-2-{[1-(2-mercapto-3-methyl-butanoylamino)-cyclopentanecarbonyl]-amino}-propionic acid] | 170 to 172 |
| Cc1noc(C)c1-c1nc(CC(NC(=O)C2(NC(=O)[C@@H](S)CC(C)C)CCCC2)C(=O)O)no1 (stereo in doubt) [Example 1(h), 3-[5-(3,5-Dimethyl-isoxazol-4-yl)-[1,2,4]oxadiazol-3-yl]-2-{[1-(2-mercapto-4-methyl-pentanoylamino)-cyclopentanecarbonyl]-amino}-propionic acid] | 151 to 153 |
| CC(C)C[C@H](NC(=O)[C@@H](S)CC(C)C)C(=O)N[C@@H](Cc1ccc(-c2cccs2)nc1)C(=O)O (stereo in doubt) [Example 2(aa), 2-[2-(2-Mercapto-4-methyl-pentanoylamino)-4-methyl-pentanoylamino]-3-[6-(thien-2-yl)-pyridin-3-yl]-propionic acid] | 156 to 158 |
| CC[C@H](C)C(S)C(=O)NC1(C(=O)NC(Cc2ccc(-c3ccsc3)nc2)C(=O)O)CCCC1 (stereo in doubt) [Example 2(b), 2-{[1-(2-Mercapto-3-methyl-pentanoylamino)-cyclopentanecarbonyl]-amino}-3-[6-(thien-3yl)-pyridin-3-yl]-propionic acid] | 200 to 202 |
| CC(C)C[C@H](S)C(=O)N[C@@H](Cc1ccc(Br)nc1)C(=O)N[C@@H](Cc1ccc(-c2cccs2)nc1)C(=O)O (stereo in doubt) [Example 2(bb), 2-[3-(6-Bromo-pyridin-3-yl)-2-(2-mercapto-4-methyl-pentanoylamino)-propionylamino]-3-[6-(thien-2-yl)-pyridin-3-yl]-propionic acid] | 194 to 195 |
| CC(C)C[C@H](S)C(=O)NC1(C(=O)NC(Cc2ccc(-c3ccoc3)nc2)C(=O)O)CCCC1 (stereo in doubt) [Example 2(dd), 3-[6-(Furan-3-yl)-pyridin-3-yl]-2-{[1-(2-mercapto-4-methyl-pentanoylamino)-cyclopentanecarbonyl]-amino}-propanoic acid] | 190 to 193 |
| CC(C)C[C@H](S)C(=O)NC(C)(C)C(=O)N[C@@H](Cc1ccc(-c2ccsc2)nc1)C(=O)O (stereo in doubt) [Example 2(k), 2-[2-(2-Mercapto-4-methyl-pentanoylamino)-2-methyl-propionylamino]-3-[6-(thien-3-yl)-pyridin-3-yl]-propionic acid] | 218 to 220 |
| O=C(O)[C@H](Cc1ccc(-c2ccsc2)nc1)NC(=O)C1(NC(=O)[C@@H](S)Cc2ccccc2)CCCC1 (stereo in doubt) [Example 2(l), 2-{[1-(2-Mercapto-3-phenyl-propionylamino)-cyclopentanecarbonyl]-amino}-3-[6-(thien-3-yl)-pyridin-3-yl]-propionic acid] | 208 to 209 |
| CC(C)C[C@H](S)C(=O)NC1(C(=O)NC(Cc2ccc(-c3cccnc3)nc2)C(=O)O)CCCC1 (stereo in doubt) [Example 2(o), 2-{[1-(2-Mercapto-4-methyl-pentanoylamino)-cyclopentanecarbonyl]-amino}-3-[6-(pyridin-3-yl)-pyridin-3-yl]-propanoic acid] | 165 to 168 |
| CC(C)C[C@H](S)C(=O)NC1(C(=O)NC(Cc2ccc(-c3ccco3)nc2)C(=O)O)CCCC1 (stereo in doubt) [Example 2(qq), 3-[6-(Furan-2-yl)-pyridin-3-yl]-2-{[1-(2-mercapto-4-methyl-pentanoylamino)-cyclopentanecarbonyl]-amino}-propionic acid] | 200 to 202 |
| CC(C)[C@H](S)C(=O)NC1(C(=O)NC(Cc2cc(-c3ccccc3)cs2)C(=O)O)CCCC1 (stereo partly drawn) [Example 1(c), 2-{[1-(2-Mercapto-3-methyl-butanoyllamino)-cyclopentanecarbonyl]-amino}-3-(4-phenyl-thien-2-yl)-propionic acid] | 158 to 164 |

Next, values leading:

| melting point [°C] | SMILES |
| --- | --- |
| 175 to 177 | CSCC[C@H](S)C(=O)NC1(C(=O)NC(Cc2ccc(-c3cccs3)nc2)C(=O)O)CCCC1 (stereo in doubt) [Example 2(r), 2-{[1-(2-Mercapto-4-methylthio-butanoylamino)-cyclopentanecarbonyl]-amino}-3-[6-(thien-2-yl)-pyridin-3-yl]-propionic acid] |
| 195 to 197 | CSCC[C@H](S)C(=O)NC1(C(=O)NC(Cc2ccc(-c3ccco3)nc2)C(=O)O)CCCC1 (stereo in doubt) [Example 2(tt), 3-[6-(Furan-2-yl)-pyridin-3-yl]-2-{[1-(2-mercapto-4-methylthiobutanoylamino)-cyclopentanecarbonyl]-amino}-propionic acid] |
| 185 to 187 | CC(C)C[C@H](S)C(=O)NC1(C(=O)NC(Cc2ccc(-c3nccs3)nc2)C(=O)O)CCCC1 (stereo in doubt) [Example 2(uu), 2-{[1-(2-Mercapto-4-methyl-pentanoylamino)-cyclopentanecarbonyl]-amino}-3-[6-(thiazol-2-yl)-pyridin-3-yl]-propionic acid] |
| 219 to 220 | O=C(NC1(C(=O)N[C@@H](Cc2ccc(-c3cccs3)nc2)C(=O)O)CCCC1)C(S)Cc1ccc(O)cc1 (stereo in doubt) [Example 2(v), 2-({1-[3-(4-Hydroxy-phenyl)-2-mercapto-propanoylamino]-cyclopentanecarbonyl}-amino)-3-[6-(thien-2-yl)-pyridin-3-yl]-propionic acid] |
| 210 to 212 | CC(C)C[C@H](S)C(=O)N[C@@H](Cc1ccc(-c2cccs2)nc1)C(=O)N[C@@H](Cc1ccc(-c2cccs2)nc1)C(=O)O (stereo in doubt) [Example 2(w), 2-{2-(2-Mercapto-4-methyl-pentanoylamino)-3-[6-(thiophen-2-yl)-pyridin-3-yl]-propanoylamino}-3-[6-(thien-2-yl)-pyridin-3-yl]-propionic acid] |
| 194 to 196 | CC(C)C[C@H](S)C(=O)NC(C)(C)C(=O)N[C@@H](Cc1ccc(-c2cccs2)nc1)C(=O)O (stereo in doubt) [Example 2(z), 2-[2-(2-Mercapto-4-methyl-pentanoylamino)-2-methyl-propionylamino]-3-[6-(thien-2-yl)-pyridin-3-yl]-propionic acid] |
| 209 to 210 | CC(C)C[C@H](S)C(=O)N[C@@H](Cc1ccccc1)C(=O)N[C@@H](Cc1ccc(-c2cccs2)nc1)C(=O)O [Example 2(u), 2-[1-(2-Mercapto-4-methyl-pentanoylamino)-3-phenyl-propionylamino]-3-[6-(thien-2-yl)-pyridin-3-yl]-propionic acid] |
